Data taken from US9611256B2, “Alkyne-, azide- and triazole-containing flavonoids as modulators for multidrug resistance in cancers” (The Hong Kong Polytechnic University, priority 2012, dated 2017).
Read-outs that look alike come from different tables or passages of the source.

Tests used:
MRP1 [1] = target: T1, MRP1 (Homo sapiens, UniProt P33527); test: Reversal of MRP1-mediated vincristine resistance in 2008/MRP1 cells (cell proliferation assay); conditions: (IC50 towards L929 or Raw264.7)/(EC50 for reversing drug resistance)
MRP1 [2] = target: T1, MRP1; test: Reversal of MRP1-mediated DOX resistance in 2008/MRP1 cells (cell proliferation assay); conditions: (IC50 towards L929 or Raw264.7)/(EC50 for reversing drug resistance)
[3] = tested on: P-gp, MRP1 and BCRP transporters; test: Selectivity for ABC transporters, determined from % of reversion (Tables 1 and 2); assay type: cell-based, human; conditions: determined from % of reversion in Table 1 (>80% strongly, 79-50% moderately selective)
Summary of the method: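 Compounds are grouped as acting on one, two or all three of P-gp, MRP1 and BCRP. The basis is percent reversion: 79-50% means moderate selectivity, above 80% strong selectivity.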

in vitro = conditions: mouse
BCRP [4] = target: T2, BCRP (Homo sapiens, UniProt Q9UNQ0); test: cell-based
T2 sequence (Q9UNQ0 1-655): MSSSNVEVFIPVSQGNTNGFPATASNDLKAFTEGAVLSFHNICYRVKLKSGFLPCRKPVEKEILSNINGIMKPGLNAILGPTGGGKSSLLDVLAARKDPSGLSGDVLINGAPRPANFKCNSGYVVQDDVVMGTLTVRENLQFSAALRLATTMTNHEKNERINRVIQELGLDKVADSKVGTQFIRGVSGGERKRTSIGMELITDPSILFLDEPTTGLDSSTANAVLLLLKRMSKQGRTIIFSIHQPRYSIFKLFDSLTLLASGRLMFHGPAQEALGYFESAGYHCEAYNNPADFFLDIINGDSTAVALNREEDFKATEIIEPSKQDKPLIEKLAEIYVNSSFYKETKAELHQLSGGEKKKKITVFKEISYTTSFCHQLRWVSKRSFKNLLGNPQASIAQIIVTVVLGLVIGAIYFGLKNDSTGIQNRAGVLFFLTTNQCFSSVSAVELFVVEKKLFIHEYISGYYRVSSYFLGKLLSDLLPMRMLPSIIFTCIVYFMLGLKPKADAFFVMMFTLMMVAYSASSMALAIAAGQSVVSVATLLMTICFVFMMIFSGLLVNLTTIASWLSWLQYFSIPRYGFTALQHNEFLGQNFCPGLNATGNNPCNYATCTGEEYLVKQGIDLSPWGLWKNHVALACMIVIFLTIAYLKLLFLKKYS

MRP1 [5] = target: T1, MRP1; test: cell-based
P-gp [6] = target: T3, P-gp (Homo sapiens, UniProt P08183); test: cell-based
P-gp [7] = target: T3, P-gp; conditions: mouse (L929 or Raw264.7) and human (LCC6MDR), 5 days
BCRP [8] = target: T2, BCRP; test: Reversal of BCRP-mediated topotecan resistance in MCF7-MX100 cells (cell proliferation assay); conditions: (IC50 towards L929 or Raw264.7)/(EC50 for reversing drug resistance)
MRP1 [9] = target: T1, MRP1; test: cell-based; remark: listed apart in the source
2008/MRP1 = test: Cell proliferation assay, 2008/MRP1

T3 sequence (P08183 whole entry): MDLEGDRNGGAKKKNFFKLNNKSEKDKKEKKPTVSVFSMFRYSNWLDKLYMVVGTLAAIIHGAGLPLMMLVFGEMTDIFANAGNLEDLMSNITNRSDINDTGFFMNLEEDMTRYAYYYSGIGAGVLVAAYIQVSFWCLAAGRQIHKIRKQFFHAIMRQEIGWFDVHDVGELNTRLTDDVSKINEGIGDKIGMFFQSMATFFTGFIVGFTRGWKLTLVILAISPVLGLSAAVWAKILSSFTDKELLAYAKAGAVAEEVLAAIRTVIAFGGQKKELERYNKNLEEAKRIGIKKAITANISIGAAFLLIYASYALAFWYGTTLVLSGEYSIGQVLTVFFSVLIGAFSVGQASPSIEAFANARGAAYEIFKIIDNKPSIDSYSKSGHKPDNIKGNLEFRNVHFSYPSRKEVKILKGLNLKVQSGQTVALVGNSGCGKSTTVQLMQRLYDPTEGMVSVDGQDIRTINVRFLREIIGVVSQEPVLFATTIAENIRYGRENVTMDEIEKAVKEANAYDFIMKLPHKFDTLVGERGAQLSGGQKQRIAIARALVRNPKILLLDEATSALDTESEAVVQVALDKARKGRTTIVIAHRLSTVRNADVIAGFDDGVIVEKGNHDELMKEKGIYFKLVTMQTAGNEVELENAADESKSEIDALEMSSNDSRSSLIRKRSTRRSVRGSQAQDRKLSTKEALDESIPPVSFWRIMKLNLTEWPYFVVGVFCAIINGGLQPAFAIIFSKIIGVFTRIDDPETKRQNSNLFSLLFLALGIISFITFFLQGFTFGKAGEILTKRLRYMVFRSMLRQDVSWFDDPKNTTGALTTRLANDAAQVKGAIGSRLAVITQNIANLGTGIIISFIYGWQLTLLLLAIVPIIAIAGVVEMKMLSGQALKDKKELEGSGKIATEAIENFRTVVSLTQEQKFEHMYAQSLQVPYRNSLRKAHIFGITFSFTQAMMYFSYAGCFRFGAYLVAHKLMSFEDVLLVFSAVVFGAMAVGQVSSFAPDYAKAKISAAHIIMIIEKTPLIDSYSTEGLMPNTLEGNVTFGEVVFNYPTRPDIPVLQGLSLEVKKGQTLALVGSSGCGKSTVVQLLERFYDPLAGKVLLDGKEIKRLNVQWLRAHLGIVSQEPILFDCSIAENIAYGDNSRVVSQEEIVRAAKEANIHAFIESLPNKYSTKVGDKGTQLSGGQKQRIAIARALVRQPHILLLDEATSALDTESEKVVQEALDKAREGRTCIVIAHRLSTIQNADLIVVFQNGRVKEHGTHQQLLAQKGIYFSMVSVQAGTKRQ
T1 sequence (P33527 whole entry): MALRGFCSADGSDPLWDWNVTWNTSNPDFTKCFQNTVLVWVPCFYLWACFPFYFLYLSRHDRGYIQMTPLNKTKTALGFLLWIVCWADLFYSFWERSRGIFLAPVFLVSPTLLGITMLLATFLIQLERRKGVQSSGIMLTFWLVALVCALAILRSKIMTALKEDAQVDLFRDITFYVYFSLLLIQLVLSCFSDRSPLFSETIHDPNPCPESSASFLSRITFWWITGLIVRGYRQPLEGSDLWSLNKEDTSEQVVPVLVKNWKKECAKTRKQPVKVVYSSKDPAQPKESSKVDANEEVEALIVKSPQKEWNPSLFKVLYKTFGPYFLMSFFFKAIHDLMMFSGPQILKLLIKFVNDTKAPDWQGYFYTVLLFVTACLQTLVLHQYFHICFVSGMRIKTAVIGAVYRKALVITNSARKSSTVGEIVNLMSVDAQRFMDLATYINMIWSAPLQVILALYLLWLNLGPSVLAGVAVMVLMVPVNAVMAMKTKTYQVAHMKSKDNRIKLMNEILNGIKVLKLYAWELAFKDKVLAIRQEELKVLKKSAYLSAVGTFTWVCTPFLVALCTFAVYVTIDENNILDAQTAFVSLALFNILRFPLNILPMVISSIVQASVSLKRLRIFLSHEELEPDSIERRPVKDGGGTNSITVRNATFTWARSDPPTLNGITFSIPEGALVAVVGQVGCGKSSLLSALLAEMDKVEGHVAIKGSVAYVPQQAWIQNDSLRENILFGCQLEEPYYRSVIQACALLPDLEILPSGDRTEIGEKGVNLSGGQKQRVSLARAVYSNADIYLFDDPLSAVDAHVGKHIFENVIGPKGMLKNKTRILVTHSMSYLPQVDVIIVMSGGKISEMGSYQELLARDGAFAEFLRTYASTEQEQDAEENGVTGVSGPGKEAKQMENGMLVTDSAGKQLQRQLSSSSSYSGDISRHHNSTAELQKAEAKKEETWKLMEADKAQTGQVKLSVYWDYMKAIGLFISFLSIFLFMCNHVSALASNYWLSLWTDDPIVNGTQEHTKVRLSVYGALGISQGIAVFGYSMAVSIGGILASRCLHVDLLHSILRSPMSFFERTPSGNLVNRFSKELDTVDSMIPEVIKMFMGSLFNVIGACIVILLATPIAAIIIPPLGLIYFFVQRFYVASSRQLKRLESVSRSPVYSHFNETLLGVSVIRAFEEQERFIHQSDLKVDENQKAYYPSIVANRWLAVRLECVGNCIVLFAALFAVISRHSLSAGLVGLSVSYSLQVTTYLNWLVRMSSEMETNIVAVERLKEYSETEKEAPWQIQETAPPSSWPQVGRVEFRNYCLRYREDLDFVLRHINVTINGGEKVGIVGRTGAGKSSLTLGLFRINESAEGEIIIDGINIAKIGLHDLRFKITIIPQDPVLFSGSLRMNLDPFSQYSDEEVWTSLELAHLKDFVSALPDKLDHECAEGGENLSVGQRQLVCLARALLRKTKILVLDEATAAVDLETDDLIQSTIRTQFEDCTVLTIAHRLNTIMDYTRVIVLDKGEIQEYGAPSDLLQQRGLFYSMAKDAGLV

Row | SMILES | Selectivity for ABC transporters (P-gp, MRP1, BCRP) [3] | IC50 at 5 days (in vitro) [nM] | EC50 (BCRP [4]) [nM] | EC50 (MRP1 [5]) [nM] | EC50 (P-gp [6]) [nM] | EC50 (MRP1 [9]) [nM] | Vincristine resistance of 2008/MRP1 Therapeutic index (MRP1 [1]) | DOX resistance of 2008/MRP1 Therapeutic index (MRP1 [2]) | Paclitaxel resistance of LCC6MDR Therapeutic index (P-gp [7]) | Topotecan resistance of MCF7-MX100 Therapeutic index (BCRP [8]) | IC50 (2008/MRP1; Homo sapiens, 2008/MRP1, read-out: IC50 of anticancer drug, 2008/MRP1) [nM] | fold more resistance of 2008/MRP1 than parental 2008/P (2008/MRP1; without modulator)
1 | Cc1ccc2oc(-c3ccc(OCCCCc4cn(CCOCCOc5ccc(-c6cc(=O)c7cc(F)ccc7o6)cc5)nn4)cc3)cc(=O)c2c1 [Ac5Az7, 6-Fluoro-2-(4-(2-(2-(4-(4-(4-(6-methyl-4-oxo-4H-chromen-2-yl)phenoxy)butyl)-1H-1,2,3-triazol-1-yl)ethoxy)ethoxy)phenyl)-4H-chromen-4-one] | – | > 100000 | – | – | 157 | – | – | – | – | – | – | –
2 | Cc1ccc2oc(-c3ccc(OCCCCc4cn(CCOCCOCCOc5ccc6c(=O)cc(-c7ccccc7)oc6c5)nn4)cc3)cc(=O)c2c1 [Ac5Az12, 6-Methyl-2-(4-(4-(1-(2-(2-(2-((4-oxo-2-phenyl-4H-chromen-7-yl)oxy)ethoxy)ethoxy)ethyl)-1H-1,2,3-triazol-4-yl)butoxy)phenyl)-4H-chromen-4-one] | mono-BCRP selectivity | > 100000 | – | – | 141 ± 1 | – | >1081.1 | >759.3 | >709.2 | >1600.0 | – | –
3 | O=c1cc(-c2ccc(OCCOCCn3cc(CCCCOc4ccc5c(=O)cc(-c6ccccc6)oc5c4)nn3)cc2)oc2ccccc12 [Ac12Az1, 7-(4-(1-(2-(2-(4-(4-Oxo-4H-chromen-2-yl)phenoxy)ethoxy)ethyl)-1H-1,2,3-triazol-4-yl)butoxy)-2-phenyl-4H-chromen-4-one] | MRP1- and BCRP-dual selectivity | > 100000 | – | 84 ± 11 | – | – | >1190.5 | – | – | – | – | –
4 | Cc1ccc2oc(-c3ccc(OCCOCCOCCn4cc(CCCCOc5ccc6c(=O)cc(-c7ccccc7)oc6c5)nn4)cc3)cc(=O)c2c1 [Ac12Az3, 6-Methyl-2-(4-(2-(2-(2-(4-(4-((4-oxo-2-phenyl-4H-chromen-7-yl)oxy)butyl)-1H-1,2,3-triazol-1-yl)ethoxy)ethoxy)ethoxy)phenyl)-4H-chromen-4-one] | multi-selectivity towards P-gp, MRP1 and BCRP transporters | > 50000 | – | – | 190 | – | >613.5 | >333.8 | >263.2 | – | – | –
5 | COCOc1cc(O)c2c(=O)cc(-c3ccc(OCCCc4cn(CCOCCOc5ccc(-c6cc(=O)c7ccccc7o6)cc5)nn4)cc3)oc2c1 [Ac4(5OH)Az1, 5-Hydroxy-7-(methoxymethoxy)-2-(4-(3-(1-(2-(2-(4-(4-oxo-4H-chromen-2-yl)phenoxy)ethoxy)ethyl)-1H-1,2,3-triazol-4-yl)propoxy)phenyl)-4H-chromen-4-one] | MRP1- and BCRP-dual selectivity | > 100000 | – | – | – | 110 ± 15 | – | >909.1 | – | >1960.8 | – | –
6 | CC[C@]1(O)C[C@H]2CN(CCc3c([nH]c4ccccc34)[C@@](C(=O)OC)(c3cc4c(cc3OC)N(C=O)[C@H]3[C@@](O)(C(=O)OC)[C@H](OC(C)=O)[C@]5(CC)C=CCN6CC[C@]43[C@@H]65)C2)C1 [vincristine] | – | – | – | – | – | – | – | – | – | – | 123 | about 2.4 fold
7 | O=c1cc(-c2ccccc2)oc2cc(OCCCCc3cn(CCOCCOc4ccc(-c5cc(=O)c6cc(F)ccc6o5)cc4)nn3)ccc12 [Ac12Az7, 6-Fluoro-2-(4-(2-(2-(4-(4-((4-oxo-2-phenyl-4H-chromen-7-yl)oxy)butyl)-1H-1,2,3-triazol-1-yl)ethoxy)ethoxy)phenyl)-4H-chromen-4-one] | MRP1- and BCRP-dual selectivity | > 100000 | – | 93.3 ± 20.5 | – | – | >1071.8 | >580.4 | – | – | – | –
8 | Cc1ccc2oc(-c3ccc(OCCCCc4cn(CCOCCOc5ccc6c(=O)cc(-c7ccccc7)oc6c5)nn4)cc3)cc(=O)c2c1 [Ac5Az11, 6-Methyl-2-(4-(4-(1-(2-(2-((4-oxo-2-phenyl-4H-chromen-7-yl)oxy)ethoxy)ethyl)-1H-1,2,3-triazol-4-yl)butoxy)phenyl)-4H-chromen-4-one] | – | > 100000 | – | 135 ± 10 | 160 ± 21 | – | – | – | – | – | – | –

More lines, main results first:

Row | Selectivity for ABC transporters (P-gp, MRP1, BCRP) [3] | IC50 at 5 days (in vitro) [nM] | EC50 (BCRP [4]) [nM] | EC50 (MRP1 [5]) [nM] | EC50 (P-gp [6]) [nM] | EC50 (MRP1 [9]) [nM] | SMILES | Vincristine resistance of 2008/MRP1 Therapeutic index (MRP1 [1]) | DOX resistance of 2008/MRP1 Therapeutic index (MRP1 [2]) | Paclitaxel resistance of LCC6MDR Therapeutic index (P-gp [7]) | Topotecan resistance of MCF7-MX100 Therapeutic index (BCRP [8]) | IC50 (2008/MRP1; Homo sapiens, 2008/MRP1, read-out: IC50 of anticancer drug, 2008/MRP1) [nM] | fold more resistance of 2008/MRP1 than parental 2008/P (2008/MRP1; without modulator)
9 | MRP1- and BCRP-dual selectivity | > 100000 | 36 ± 4 | 535 ± 62.6 | – | – | Cc1ccc2oc(-c3ccc(OCCOCCOCCn4cc(CN(Cc5ccccc5)Cc5cn(CCOCCOCCOc6ccc(-c7cc(=O)c8cc(C)ccc8o7)cc6)nn5)nn4)cc3)cc(=O)c2c1 [Ac15Az3, 2,2′-((((((((4,4′-((Benzylazanediyl)bis(methylene))bis(1H-1,2,3-triazole-4,1-diyl))bis(ethane-2,1-diyl))bis(oxy))bis(ethane-2,1-diyl))bis(oxy))bis(ethane-2,1-diyl))bis(oxy))bis(4,1-phenylene))bis(6-methyl-4H-chromen-4-one)] | >186.9 | >210.5 | – | – | – | –
10 | MRP1- and BCRP-dual selectivity | > 100000 | 34 | 168 | – | – | O=c1cc(-c2ccccc2)oc2cc(OCCCCc3cn(CCOCCOCCOc4ccc5c(=O)cc(-c6ccccc6)oc5c4)nn3)ccc12 [Ac12Az12, 7-(2-(2-(2-(4-(4-((4-Oxo-2-phenyl-4H-chromen-7-yl)oxy)butyl)-1H-1,2,3-triazol-1-yl)ethoxy)ethoxy)ethoxy)-2-phenyl-4H-chromen-4-one] | >595.2 | >740.7 | – | – | – | –
11 | MRP1- and BCRP-dual selectivity | > 100000 | 30 | 169 | – | – | O=c1cc(-c2ccccc2)oc2cc(OCCCCc3cn(CCOCCOc4ccc5c(=O)cc(-c6ccccc6)oc5c4)nn3)ccc12 [Ac12Az11, 7-(2-(2-(4-(4-((4-Oxo-2-phenyl-4H-chromen-7-yl)oxy)butyl)-1H-1,2,3-triazol-1-yl)ethoxy)ethoxy)-2-phenyl-4H-chromen-4-one] | >591.7 | >877.2 | – | – | – | –
12 | mono-MRP1 selectivity | > 100000 | – | 550 | – | 530 ± 120 | O=c1cc(-c2ccc(OCCOCCOCCn3cc(CN(Cc4ccccc4)Cc4cn(CCOCCOCCOc5ccc(-c6cc(=O)c7ccccc7o6)cc5)nn4)nn3)cc2)oc2ccccc12 [Ac15Az2, 2,2′-((((((((4,4′-((Benzylazanediyl)bis(methylene))bis(1H-1,2,3-triazole-4,1-diyl))bis(ethane-2,1-diyl))bis(oxy))bis(ethane-2,1-diyl))bis(oxy))bis(ethane-2,1-diyl))bis(oxy))bis(4,1-phenylene))bis(4H-chromen-4-one)] | >181.8 | >188.7 | – | – | – | –
13 | Pgp- and BCRP-dual selectivity | > 100000 | – | – | 340 | – | O=c1cc(-c2ccccc2)oc2cc(OCCOCc3cn(CCOCCOc4ccc(-c5oc6ccccc6c(=O)c5OCc5ccccc5)cc4)nn3)ccc12 [Ac13Az10, 3-(Benzyloxy)-2-(4-(2-(2-(4-((2-((4-oxo-2-phenyl-4H-chromen-7-yl)oxy)ethoxy)methyl)-1H-1,2,3-triazol-1-yl)ethoxy)ethoxy)phenyl)-4H-chromen-4-one] | – | – | >294.1 | >845.3 | – | –
14 | Pgp- and BCRP-dual selectivity | > 100000 | – | – | 330 | – | O=c1cc(-c2ccccc2)oc2cc(OCCCCc3cn(CCOCCOc4ccc(-c5oc6ccccc6c(=O)c5OCc5ccccc5)cc4)nn3)ccc12 [Ac12Az10, 3-(Benzyloxy)-2-(4-(2-(2-(4-(4-((4-oxo-2-phenyl-4H-chromen-7-yl)oxy)butyl)-1H-1,2,3-triazol-1-yl)ethoxy)ethoxy)phenyl)-4H-chromen-4-one] | – | – | >303.0 | >2924.0 | – | –
